Results reported in patent US7408039B2, “Kits for treatment of hematologic disorders” (The General Hospital Corporation, priority 1997, dated 2008).

Tests used:
[1] = test system: refractory non-Hodgkin's lymphoma; details: five patients; Cy 50 mg/kg daily x4
From the text: Median patient age was 30 (range 20-45) years. All patients had disease progression during salvage chemotherapy or radiation therapy.

[2] = cited from earlier work

O=P1(N(CCCl)CCCl)NCCCO1 (centres unmarked) [cyclophosphamide]
patients with reversible Cy cardiotoxicity [1]: 1 n
post-chemotherapy hematopoietic recovery ([2]; 200 mg/kg, expected, following drug administration): approximately 2 weeks
patients developing diffuse maculopapular rash ([2]; 24-72 hours following cyclophosphamide): 10-20%
patients with some hematuria ([2]; at this dose level (50 mg/kg x 4)): Approximately 50%
incidence of hemorrhagic cystitis ([2]; cyclophosphamide 50 mg/kg on days -6 to -3): 20%
myeloablation ([2]; dose of 200 mg/kg): not myeloablative
time for rash to resolve ([2]; in vivo): 24 to 48 h
total dose at which fatal cardiac failure due to hemorrhagic necrosis can occur ([2]; total dose (7.6 grams/m^2)): ≥ 200 mg/kg
